“And” between values parts separate entries of the source, which are not always exact repeats. Equal entries are not always repeated.
Tests used:
[1] = Mouse pharmacokinetic (PK) study, parent compound and psilocin metabolite in plasma; type: in vivo; details: for Plasma concentration of C(XX): LLOQ 0.25 ng/mL; for Plasma concentration: parent C(XX), BLQ = below 0.25 ng/mL; for AUC0-tlast/Dose of C(XX) / Cmax/Dose of C(XX) / AUC0-inf/Dose of C(XX): plasma
Excerpt: Briefly, the procedure was as follows. […] 19, 2022.

[2] = target: T1, 5-HT1A receptor (Homo sapiens, UniProt P08908); test: cAMP-Glo assay of 5-HT1A receptor modulation, CHO-K1/5-HT1A/Ga15 (+5-HT1A) vs CHO-K1/Ga15 (−5-HT1A) cells; type: cell-based; details: +5-HT1A vs −5-HT1A CHO-K1 cells; 4 μM forskolin; increasing ligand concentration
T1 construct: host or cells: CHO-K1 (co-expressing Ga15)
T1 sequence (P08908 1-422): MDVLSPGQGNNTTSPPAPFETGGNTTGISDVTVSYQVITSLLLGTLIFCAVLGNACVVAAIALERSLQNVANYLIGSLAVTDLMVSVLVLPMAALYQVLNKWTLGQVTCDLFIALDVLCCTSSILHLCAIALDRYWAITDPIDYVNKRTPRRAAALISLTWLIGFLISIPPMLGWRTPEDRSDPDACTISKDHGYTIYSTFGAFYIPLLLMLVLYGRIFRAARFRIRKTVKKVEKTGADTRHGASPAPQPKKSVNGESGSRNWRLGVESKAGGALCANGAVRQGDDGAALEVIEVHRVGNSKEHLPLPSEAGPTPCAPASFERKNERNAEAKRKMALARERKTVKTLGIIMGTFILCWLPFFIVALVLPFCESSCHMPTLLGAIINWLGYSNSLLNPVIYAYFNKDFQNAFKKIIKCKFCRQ

[3] = target: T2, 5-HT2A receptor (5-HT2AR) (Mus musculus, UniProt P35363); test: Drug-induced Head Twitch Response (HTR); type: in vivo; details: 1 mg/kg i.p., 15-to-30-minute window post-drug, relative to vehicle
T2 construct: host or cells: C57BL/6 mice, in vivo (neuronal receptor)
T2 sequence (P35363 whole entry): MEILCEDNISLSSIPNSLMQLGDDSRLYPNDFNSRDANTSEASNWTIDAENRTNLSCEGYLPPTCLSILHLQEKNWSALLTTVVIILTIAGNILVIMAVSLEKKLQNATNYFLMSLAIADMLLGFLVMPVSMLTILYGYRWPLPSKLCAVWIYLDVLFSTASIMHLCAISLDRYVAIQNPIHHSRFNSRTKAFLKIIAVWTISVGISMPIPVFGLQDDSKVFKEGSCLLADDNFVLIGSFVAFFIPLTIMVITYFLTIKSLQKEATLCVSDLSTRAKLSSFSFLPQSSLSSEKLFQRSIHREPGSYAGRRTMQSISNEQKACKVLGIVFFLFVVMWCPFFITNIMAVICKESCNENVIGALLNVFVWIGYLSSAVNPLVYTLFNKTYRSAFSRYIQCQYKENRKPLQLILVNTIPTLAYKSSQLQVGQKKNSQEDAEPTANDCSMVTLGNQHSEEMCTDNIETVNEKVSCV

[4] = target: 5-HT2A receptor (Homo sapiens, UniProt P28223); test: [3H]ketanserin competition binding assay (SPA); details: 1 nM [3H]ketanserin; control ligands
Chain of 5-HT2A receptor (P28223 whole entry): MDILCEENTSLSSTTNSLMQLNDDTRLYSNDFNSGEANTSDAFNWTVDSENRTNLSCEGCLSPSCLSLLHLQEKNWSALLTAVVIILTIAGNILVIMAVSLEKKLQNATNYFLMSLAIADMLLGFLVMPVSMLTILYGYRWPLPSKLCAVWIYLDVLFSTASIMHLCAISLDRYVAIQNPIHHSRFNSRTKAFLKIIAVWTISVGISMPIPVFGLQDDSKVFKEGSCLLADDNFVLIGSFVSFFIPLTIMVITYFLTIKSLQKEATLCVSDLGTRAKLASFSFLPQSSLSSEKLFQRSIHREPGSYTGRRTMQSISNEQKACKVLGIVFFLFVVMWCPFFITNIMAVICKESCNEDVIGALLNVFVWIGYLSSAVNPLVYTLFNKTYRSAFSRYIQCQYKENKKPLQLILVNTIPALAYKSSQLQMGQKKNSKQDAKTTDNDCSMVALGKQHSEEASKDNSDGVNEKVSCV

[5] = Metabolic stability / psilocin release in serum; type: in vitro ADME; details: 10% human AB serum
Excerpt: (§1) A fundamental evaluation in drug development is the assessment of absorption, distribution, metabolism, excretion, and pharmacokinetics (ADME/PK) (Eddershaw et al., 2000, Drug Discovery Today 5(9): 409-414). […] Drug stability upon exposure to human liver microsomes and liver S9 cellular fractions is a common in vitro assay to approximate in vivo, liver-based drug metabolism (Richardson et al., 2016 Drug Metabolism Letters 10:83-90). First-pass metabolism is also often approximated in vitro using intestinal microsome and cellular S9 fractions (Hatley et al., 2017, Biopharmaceuticals & Drug Disposition, 38(2):155-160). […] Supernatants were analyzed for the presence of candidate prodrugs (parent molecule) and psilocin (the predicted metabolite) using Orbitrap LC-MS (Thermo Scientific) using previously described methods (Menéndez-Perdomo et al., 2021, J Mass Spectrom, 56: e4683). […] Assay concentrations (M) of both parent ‘prodrug’ molecule and psilocin metabolite, as quantified through LC-MS using routine standard curve procedures, were plotted as functions of assay time (minutes). The metabolism rate (T1/2) was determined from the metabolism curve plot using the one phase decay feature of GraphPad PRISM software (Version 9.2.0). The quantity of parent prodrug at time zero was set as 100%. […]

[6] = Metabolic stability / psilocin release in liver fractions; type: in vitro ADME, human; details: HLM and HLS9; 2.5 μM; up to 2 hours
Excerpt: as §1

[7] = Stability in enzyme-free control buffer; type: in vitro ADME; details: 50 mM potassium phosphate buffer pH 7.4
Excerpt: A fundamental evaluation in drug development is the assessment of absorption, distribution, metabolism, excretion, and pharmacokinetics (ADME/PK) (Eddershaw et al., 2000, Drug Discovery Today 5(9): 409-414). […] Drug stability upon exposure to human liver microsomes and liver S9 cellular fractions is a common in vitro assay to approximate in vivo, liver-based drug metabolism (Richardson et al., 2016 Drug Metabolism Letters 10:83-90). First-pass metabolism is also often approximated in vitro using intestinal microsome and cellular S9 fractions (Hatley et al., 2017, Biopharmaceuticals & Drug Disposition, 38(2):155-160). […] Supernatants were analyzed for the presence of candidate prodrugs (parent molecule) and psilocin (the predicted metabolite) using Orbitrap LC-MS (Thermo Scientific) using previously described methods (Menéndez-Perdomo et al., 2021, J Mass Spectrom, 56: e4683). […] Assay concentrations (M) of both parent ‘prodrug’ molecule and psilocin metabolite, as quantified through LC-MS using routine standard curve procedures, were plotted as functions of assay time (minutes). The metabolism rate (T1/2) was determined from the metabolism curve plot using the one phase decay feature of GraphPad PRISM software (Version 9.2.0). The quantity of parent prodrug at time zero was set as 100%.

[8] = 3 mg/kg oral C(XX), individual mice, 3 mg/kg
[9] = 10 mg/kg oral C(XX), individual mice, 10 mg/kg

Compound: CN(C)CCc1c[nH]c2cccc(OC(=O)c3cccc4c3OCCO4)c12 [C(XX)]
- Plasma concentration of psilocin ([1]; 1 mg/kg i.v. C(XX), 8 h, individual mice, LLOQ 0.5 ng/mL): BLQ
- Plasma concentration of psilocin ([1]; 1 mg/kg oral C(XX), 24 h, individual mice, LLOQ 0.5 ng/mL): BLQ
- Plasma concentration of C(XX) ([1]; 3 mg/kg oral C(XX), 0.25 h, individual mice): 1.72 ng/mL
- Plasma concentration of C(XX) ([1]; 3 mg/kg oral C(XX), 0.5 h, individual mice): 1.13 ng/mL
- Plasma concentration of C(XX) ([1]; 3 mg/kg oral C(XX), 4 h, individual mice): No Peak (2×) and BLQ
- Plasma concentration of C(XX) ([1]; 3 mg/kg oral C(XX), 6 h, individual mice): No Peak and BLQ (2×)
- Plasma concentration of C(XX) ([1]; 3 mg/kg oral C(XX), 8 h, individual mice): No Peak and BLQ (2×)
- Plasma concentration of C(XX) ([1]; 3 mg/kg oral C(XX), 24 h, individual mice): No Peak
- Plasma concentration of psilocin ([1]; 3 mg/kg oral C(XX), 24 h, individual mice, LLOQ 0.5 ng/mL): BLQ
- F of C(XX) ([1]; 3 mg/kg oral C(XX), individual mice): 0.816% and 1.08% and 0.962%
- F of C(XX) ([1]; 3 mg/kg oral C(XX), mean): 0.953 ± 0.132%
- Plasma concentration of C(XX) ([1]; 10 mg/kg oral C(XX), 0.25 h, individual mice): 10.3 ng/mL
- Plasma concentration of C(XX) ([1]; 10 mg/kg oral C(XX), 2 h, individual mice): 1.08 ng/mL
- Plasma concentration of C(XX) ([1]; 10 mg/kg oral C(XX), 4 h, individual mice): BLQ
- Plasma concentration of C(XX) ([1]; 10 mg/kg oral C(XX), 6 h, individual mice): BLQ
- Plasma concentration of C(XX) ([1]; 10 mg/kg oral C(XX), 8 h, individual mice): BLQ
- Plasma concentration of C(XX) ([1]; 10 mg/kg oral C(XX), 24 h, individual mice): No Peak
- Plasma concentration of psilocin ([1]; 10 mg/kg oral C(XX), 24 h, individual mice, LLOQ 0.5 ng/mL): BLQ
- Plasma concentration ([1]; 1 mg/kg i.v., 2 h, each animal, 1 mg/kg): 1.14 ng/mL
- Plasma concentration ([1]; 1 mg/kg i.v., 6 h, each animal): BLQ
- Plasma concentration ([1]; 1 mg/kg i.v., 8 h, each animal, 1 mg/kg): BLQ and No (2×)
- Plasma concentration ([1]; 1 mg/kg p.o., 2 h, each animal): BLQ
- Plasma concentration ([1]; 1 mg/kg p.o., 4 h, each animal): BLQ
- Plasma concentration ([1]; 1 mg/kg p.o., 6 h, each animal, 1 mg/kg): No Peak (2×) and BLQ
- Plasma concentration ([1]; 1 mg/kg p.o., 8 h, each animal, 1 mg/kg): No Peak (2×) and BLQ
- Plasma concentration ([1]; 1 mg/kg p.o., 24 h, each animal): No Peak
- AUC0-tlast/Dose ([1]; parent compound in plasma, 1 mg/kg i.v., each animal, 1 mg/kg): 48.0 kg·ng·h/mL/mg
- AUC0-tlast/Dose of C(XX) ([1]; 1 mg/kg i.v. C(XX), mean): 52.8 ± 8.30 kg·ng·h/mL/mg
- Cmax/Dose of C(XX) ([1]; 1 mg/kg p.o. C(XX), mean): 0.620 ± 0.0996 kg·ng/mL/mg
- AUC0-inf/Dose of C(XX) [1, 8]: 0.433 kg·ng·h/mL/mg and 0.572 kg·ng·h/mL/mg and 0.510 kg·ng·h/mL/mg
- AUC0-tlast/Dose of C(XX) [1, 8]: 0.406 kg·ng·h/mL/mg and 0.494 kg·ng·h/mL/mg and 0.474 kg·ng·h/mL/mg
- Cmax/Dose of C(XX) [1, 8]: 0.497 kg·ng/mL/mg and 0.573 kg·ng/mL/mg and 0.643 kg·ng/mL/mg
- AUC0-inf/Dose of C(XX) ([1]; 3 mg/kg oral C(XX), mean): 0.505 ± 0.0700 kg·ng·h/mL/mg
- AUC0-tlast/Dose of C(XX) ([1]; 3 mg/kg oral C(XX), mean): 0.458 ± 0.0457 kg·ng·h/mL/mg
- Cmax/Dose of C(XX) ([1]; 3 mg/kg oral C(XX), mean): 0.571 ± 0.0734 kg·ng/mL/mg
- AUC0-tlast/Dose of C(XX) [1, 9]: 0.565 kg·ng·h/mL/mg and 0.499 kg·ng·h/mL/mg and 0.916 kg·ng·h/mL/mg
- Cmax/Dose of C(XX) [1, 9]: 0.299 kg·ng/mL/mg and 0.912 kg·ng/mL/mg and 1.03 kg·ng/mL/mg
- AUC0-tlast/Dose of C(XX) ([1]; 10 mg/kg oral C(XX), mean): 0.660 ± 0.224 kg·ng·h/mL/mg
- Cmax/Dose of C(XX) ([1]; 10 mg/kg oral C(XX), mean): 0.747 ± 0.392 kg·ng/mL/mg
- 5-HT1A receptor modulation (reduction of forskolin-induced cAMP) [2]: significant receptor modulation
- Head Twitch Response (HTR) incidence [3]: Elevated incidences of HTR

Compound: CN(C)CCc1c[nH]c2cccc(O)c12 [psilocin, reference compound]
- Binding at 5-HT2A receptor in competition assay [4]: binding
- 5-HT1A receptor modulation (reduction of forskolin-induced cAMP) [2]: reduction in cAMP levels

Compound: CN(C)CCc1c[nH]c2cccc(OP(=O)(O)O)c12 [psilocybin, reference compound]
- Detection of parent compound in plasma after i.v. administration ([1]; mouse, 1 mg/kg i.v.): only detectable in i.v. administered animals
- Plasma concentration of parent compound ([1]; mouse, 1 mg/kg i.v., 0.25 h, individual animals, BLQ = below 0.5 ng/mL (C(V)), 1 mg/kg): 3.32 ng/mL and 8.95 ng/mL and 27.2 ng/mL
- Plasma concentration of parent compound ([1]; mouse, 1 mg/kg i.v., 0.5 h, individual animals, BLQ = below 0.5 ng/mL (C(V)), 1 mg/kg): No Peak and 2.35 ng/mL and 6.21 ng/mL
- Plasma concentration of parent compound ([1]; mouse, 1 mg/kg i.v., 1 h, individual animals, 1 mg/kg): No Peak
- Plasma concentration of parent compound ([1]; mouse, 1 mg/kg i.v., 2 h, individual animals): No Peak
- Plasma concentration of parent compound ([1]; mouse, 1 mg/kg i.v., 4 h, individual animals): No Peak
- Plasma concentration of parent compound ([1]; mouse, 1 mg/kg i.v., 6 h, individual animals): No Peak
- Plasma concentration of parent compound ([1]; mouse, 1 mg/kg i.v., 8 h, individual animals, 1 mg/kg): No Peak
- Detection of parent compound in plasma after oral administration ([1]; mouse, orally administered, any dose (1, 3, 10 mg/kg)): not detectable
- Plasma concentration of psilocin ([1]; mouse, prodrug 1 mg/kg p.o. (psilocybin: 1.56 mg/kg), 24 h, individual animals, BLQ = below 0.2 ng/mL): BLQ
- Plasma concentration of psilocin ([1]; mouse, prodrug 3 mg/kg p.o., 24 h, individual animals, BLQ = below 0.2 ng/mL): BLQ
- Metabolic stability and conversion to psilocin in serum [5]: stable in serum with no conversion to psilocin
- Metabolic stability and conversion to psilocin in liver fractions [6]: stable in liver fractions with no conversion to psilocin
- Stability in assay buffer [7]: stability of psilocybin was confirmed in assay buffer

Compound: N[C@@H](Cc1c[nH]c2ccccc12)C(=O)O [tryptophan, reference compound]
- Binding at 5-HT2A receptor in competition assay [4]: no binding
- 5-HT1A receptor modulation (reduction of forskolin-induced cAMP) [2]: no reduction in cellular cAMP levels

— patent publication US20250197351A1, “C4-CARBOXYLIC ACID-S[…] DERIVATIVES AND METHODS OF USING” (priority 2022, published 2025)
